Source: US11806351B2, “Use of coenzyme factor for activation of ATP production in cell” (TERA STONE Co., Ltd, priority 2018, dated 2023)

Experiments:
[1] = system: human glioma U251 cells (Sig1-R transfected cells); test: intracellular ATP concentration in human glioma U251 cells; assay type: cell-based
Method: To cultured human glioma US251 cells (Sig1-R transfected cells) were added Specimens 1 and 2, respectively and intercomparison was performed between intracellular ATP concentration after addition and that without addition (Cont.). […] It is to be noted that fluorescence measurement was performed 6 hours after the administration of the specimens.

[2] = lipophilicity, hydrophobicity and stability; assay type: physicochemical
[3] = system: mitochondrial Ca^2+ concentration in cerebral cortex and hippocampal neurons; test: K+ depolarization-induced mitochondrial Ca2+ increase in brain slices after intraperitoneal administration; assay type: in vivo, C57BL/6N mice
Method: One of adult C57BL/6N mice (from 10 to 17 weeks old, weight: from 28 to 31 g) was intraperitoneally administered with physiological saline (Control) and the other one with Specimen 3 (10 μg/kg). After 22 hours, a thin brain slice preparation of each mouse including the cortex and the hippocampus was made. Depolarization of a cellular membrane was caused by the addition of 80 mM KCl (80K) to an extracellular fluid and an increase in mitochondrial Ca^2+ concentration resulting therefrom was measured by a fluorescent method with Rhod-2 (Note 1). Positive participation of Specimen 3 to the ATP activity in mitochondria was indirectly verified (Note 3) by using, as an index, how the Ca^2+ concentration to be increased by 80K (Note 2) is suppressed by Specimen 3 in the brain slice.
(Note 1) Rhod-2: Ca^2+ fluorescent dye selectively incorporated in mitochondria
(Note 2) The depolarization of the neuronal membrane by 80K occurs due to both the flow of Ca^2+ from the outside to the inside of the cell and the release of Ca^2+ from an intracellular Ca store. The free Ca^2+ which has increased in the cell easily enters the mitochondria, an intracellular independent organ.
(Note 3) The free Ca^2+ which has increased in the neuronal cytoplasm due to 80K stimulation-induced depolarization speedily and immediately transmits into the mitochondria from the cytoplasm. A decrease in the mitochondrial free Ca^2+ concentration caused by the specimen occurs because the free Ca^2+ is scooped out of the cell by an outward Ca pump present in the neuron cytoplasm membrane or adsorption and fixing to a portion inside the mitochondria. Energy for it is supplied from ATP produced in the mitochondria. Based on the results thus obtained, intraperitoneally injected Specimen 3 passes from the blood to glia (astrocyte) cells and is then, incorporated in the mitochondria in the cerebral cortex or hippocampal neuron, by which ATP production in the mitochondria is activated and neurons are activated. […]
Fluorescence measurement results of a mitochondrial Ca^2+ increase are plotted along the ordinate.

hippocampal neurons = test: number of branches of hippocampal neuron dendrite, Specimens 5 to 11; assay type: cell-based, ICR mouse; settings: 0.3 μM added once on culture day 1; MAP2 antibody culture day 4
Method: Hippocampal neurons were collected from the juvenile (Day 0 after birth) ICR mouse brain and cultured on a culture dish.
Each specimen was added once to the cells in the initial growth stage (on culture day 1); the resulting cells were immunostained with a MAP2 antibody three days later (on culture day 4), and the number of branches of the dendrite was quantified.
The measurement was performed by drawing 20 μm to 100 μm concentric circles (not shown) at an interval of 10 μm with a soma as a center and counting the number of dendrites crossing the circles.
A line graph of the number of dendrite crossings counted for each distance from the soma was drawn and a Student's t-test, paired (t-test, two tailed distribution) was carried out using an area under the line graph (Area under the Curve: AUC).
When the number of cases of a specimen was sufficient, the test was performed while eliminating the maximum and minimum values. The concentrations of the specimens to be added were each 0.3 μM.

[4] = system: cytoplasmic calcium concentration; test: cytoplasmic calcium concentration in brain slice preparations exposed to 80K ACSF, 24 h after subcutaneous administration; assay type: in vivo, mouse (C57B/6NL)
Method: (§1) Formation of brain slice preparation and measurement of calcium concentration: Used was a whole brain half-cut preparation obtained by cutting a whole brain slice (300 μm) of a mouse (C57B/6NL), pretreated with Specimen 1 for 24 hours by subcutaneous administration, at a median line. […] The resulting preparation was placed in a chamber provided on a stage of an inverted fluorescence microscope (Olympus IX71), covered with a piece of black cotton, fixed with a platinum ring, and refluxed (70 ml/hr) in ACSF aerated with 95% O2 and 5% CO2. A fluorescent image of the preparation was acquired using a 4× objective lens and respective images of the hippocampal ventral part and cerebral cortex temporal region were obtained in one screen. For the measurement of a mitochondrial calcium concentration, a change in intensity of red fluorescence (>600 nm) caused by excitation light at 580 nm was determined and for the measurement of a cytoplasmic calcium concentration, a ratio of fluorescence (>500 nm) between excitation at 360 nm and that at 380 nm was determined. A hippocampal CA1 site and a cerebral cortex were used as two regions of interest (ROI).
(§2) In water was dissolved β-NMN to give a 10 mg/kg, 30 mg/kg, or 100 mg/kg solution; Specimen 1 was dissolved in an alcohol to give a solution of 1 mg/ml and then the resulting solution was diluted with water to give a 0.01 mg/kg, 0.1 mg/kg or 1.0 mg/kg solution; and they were subcutaneously administered to mice 24 hours before the formation of the preparation (0.1 ml/10 g).
(§3) In the present test, an operation of exposing the brain preparations formed from mice administered with two drugs having respective concentrations to isotonic 80 mM KCl-ACSF (artificial cerebrospinal fluid) for 5 minutes and then returning them in normal ACSF for 5 minutes was performed three successive times to give a severe calcium load to the preparations. Variations in cytoplasmic and mitochondrial calcium concentrations at that time were measured.

[5] = system: mitochondrial calcium concentration; test: mitochondrial calcium concentration in brain slice preparations exposed to 80K ACSF, 24 h after subcutaneous administration; assay type: in vivo, mouse (C57B/6NL)
Method: as §1, §2, §3
FIG. 31A to FIG. 32C show the quantification results of the effects of β-NMN and Specimen 1 (TND1128) at each concentration. In FIG. 31A to FIG. 32C, FIG. 31A and FIG. 32A show the results of calculating a mitochondrial calcium concentration, as AUC (Area under the curve), for 35 minutes from 5 minutes after starting of the experiment by administration to three times exposure to 80K-ACSF and 5-minute washing (refer to FIG. 37). FIG. 31B. FIG. 31C, FIG. 32B and FIG. 32C show the drug effects on 5-minute 80K administration and 5-minute subsequent washing (1st: from 5 minutes to 15 minutes, 2nd: from 15 minutes to 25 minutes, and 3rd: from 25 minutes to 35 minutes) in the cerebral cortex (CTX) and the hippocampus (CA1), respectively (refer to FIG. 37). A significant difference test was performed using Tukey's method.

Compound	melting point	number of branches of hippocampal neuron dendrite (AUC of dendrite crossings, t-test vs control) (hippocampal neurons)	other results
CCCCn1c2nc(=O)n(-c3ccccc3)c(=O)c-2cc2c1C=C1CC[C@H]3[C@@H]4CC[C@H](O)[C@@]4(C)CC[C@@H]3[C@@]1(C)C2	200 °C	–	–
C[C@]12CC[C@H]3[C@@H](CCC4=Cc5c(cc6c(=O)n(-c7ccccc7)c(=O)nc-6n5Cc5ccccc5)C[C@@]43C)[C@@H]1CC[C@@H]2O	224 °C	–	–
C[C@]12CC[C@H]3[C@@H](CCC4=Cc5c(cc6c(=O)n(-c7ccccc7)c(=O)nc-6n5-c5ccccc5)C[C@@]43C)[C@@H]1CC[C@@H]2O	257 °C	–	–
CCn1c2nc(=O)n(C)c(=O)c-2cc2c1C=C1CC[C@H]3[C@@H]4CC[C@H](O)[C@@]4(C)CC[C@@H]3[C@@]1(C)C2	260 °C (dec.)	–	–
Cn1c(=O)nc2n(Cc3ccccc3)c3c(cc-2c1=O)C[C@@]1(C)C(=C3)CC[C@H]2[C@@H]3CC[C@H](O)[C@@]3(C)CC[C@@H]21	215 °C	–	–
Cn1c(=O)nc2n(-c3ccccc3)c3c(cc-2c1=O)C[C@@]1(C)C(=C3)CC[C@H]2[C@@H]3CC[C@H](O)[C@@]3(C)CC[C@@H]21	215 °C (dec.)	–	–
CCCCn1c2nc(=O)n(C)c(=O)c-2cc2ccccc21 [Specimen 2]	–	–	effectiveness on ATP production compared between specimens ([1]; 6 hours after administration): more effective than Specimen 1; ATP production amount (intracellular ATP concentration vs without addition) ([1]; fluorescence measurement 6 hours after administration): significantly increased the ATP production amount; lipophilicity compared with Specimen 1 [2]: higher lipophilicity
CCCCn1c2nc(=O)n(C)c(=O)c-2cc2c1C=C1CCC3C(CCC4(C)C(O)CCC34)C1(C)C2 (stereo not drawn) [Specimen 3, 8′-n-Butyl-5′-deaza-17β-hydroxy-3′-methylandrost-2,4-dieno[2,3-g]pteridine-2′,4′(3′H,8′H)-dione]	–	–	decrease of 80K depolarization-induced increase in mitochondrial Ca2+ concentration, cortex and hippocampal neurons ([3]; 10 μg/kg i.p. pretreatment in vivo): markedly and at the maximum; variations of mitochondrial Ca2+ concentration on 80K extracellular fluid, cerebral cortex neurons ([3]; 10 μg/kg i.p., slice made 22 hours after injection): suppression of the Ca^2+ concentration increase and a faster recovery from the Ca^2+ concentration increased by 80K depolarization can be observed; dose at which the maximum inhibitory effect on mitochondrial Ca2+ concentration increase is attained, hippocampal neurons ([3]; i.p., 10 μg/kg and 10 mg/kg compared, n=3 slices): 0.01 mg/kg
CCn1c2nc(=O)n(C)c(=O)c-2cc2c(=O)n(C)c(=O)[nH]c21 [Specimen 5]	–	an effect on dendrite elongation is recognized	–
O=c1nc2n(-c3ccc(Cl)cc3)c3[nH]c(=O)n(-c4ccccc4)c(=O)c3cc-2c(=O)n1-c1ccccc1 [Specimen 6]	–	an effect on dendrite elongation is recognized	–
Cn1c2nc(=O)n(C)c(=O)c-2cc2c1C=C1CCC3C(CCC4(C)C(O)CCC34)C1(C)C2 (centres unmarked) [Specimen 7]	–	a statistically significant difference is recognized (p<0.05)	–
CCn1c2nc(=O)n(-c3ccccc3)c(=O)c-2cc2c1C=C1CCC3C(CCC4(C)C(O)CCC34)C1(C)C2 (stereo not drawn) [Specimen 8, 5′-Deaza-8′-ethyl-17β-hydroxy-3′-phenylandrost-2,4-dieno[2,3-g]pteridine-2′,4′(3′H, 8′H)-dione]	–	an effect on dendrite elongation is recognized	–
CC(C)CCCC(C)C1CCC2C3CCC4=Cc5c(cc6c(=O)n(C)c(=O)nc-6n5C)CC4(C)C3CCC12C (centres unmarked) [Specimen 9]	–	an effect on dendrite elongation is recognized	–
Cc1ccc(-n2c3nc(=O)n(C)c(=O)c-3cc3c2C=C2CCC4C(CCC5(C)C(C(C)CCCC(C)C)CCC45)C2(C)C3)cc1C (centres unmarked) [Specimen 10]	–	an effect on dendrite elongation is recognized	–
Cc1ccc(-n2c3nc(=O)n(-c4ccccc4)c(=O)c-3cc3c2C=C2CCC4C(CCC5(C)C(C(C)CCCC(C)C)CCC45)C2(C)C3)cc1C (centres unmarked) [Specimen 11]	–	a statistically significant difference is recognized (p<0.05)	–
NC(=O)c1ccc[n+]([C@@H]2O[C@H](COP(=O)([O-])O)[C@@H](O)[C@H]2O)c1 [β-NMN, Nicotinamide mononucleotide, reference compound]	–	–	effect on drastic increase in cytoplasmic Ca2+ concentration caused by 80K-ACSF ([4]; s.c. 24 h pretreatment): no significant effect; quantified cytoplasmic Ca2+ (AUC), significant difference ([4]; s.c. 24 h pretreatment, all doses): a significant difference was not observed at concentrations other than that of the group administered with 10 mg/kg of β-NMN; recovery of cytoplasmic calcium concentration variations at each 80K-ACSF administration ([4]; β-NMN 30 or 100 mg/kg, Specimen 1 0.01 to 1.0 mg/kg, s.c. 24 h): show similar recovery; physiological response of the preparations under 80K-ACSF stimulation (mitochondrial and cytoplasmic Ca2+ variations) ([5]; 100 mg/kg β-NMN, 1 mg/kg Specimen 1): the preparations can maintain a markedly stable physiological response; mitochondrial protective function / function stabilizing effect ([5]; 24 hours after administration): induces significant mitochondrial protective function; mitochondrial calcium concentration as AUC, cerebral cortex (CTX) and hippocampus (CA1) ([5]; s.c. 24 h pretreatment, within the dose range studied, Tukey's method): a dose response relationship; mitochondrial Ca2+ increase on three times 80K ACSF exposure (time course) ([5]; s.c. 24 h pretreatment, β-NMN 10, 30, 100 mg/kg, Specimen 1 0.01, 0.1, 1.0 mg/kg): dose-dependently suppress a mitochondrial Ca^2+ increase
